Test results taken from patent publication US20240109873A1, “ANTAGONISTS OF THE MUSCARINIC ACETYLCHOLINE RECEPTOR M4” (Vanderbilt University, priority 2020, published 2024).

Target: T1, human mAChR M4 (Homo sapiens, UniProt P08173)
T1 construct: expressed in transfected cells; host or cells: CHO-K1 (ATCC), co-transfected with chimeric G protein Gqi5
T1 sequence (P08173 1-479): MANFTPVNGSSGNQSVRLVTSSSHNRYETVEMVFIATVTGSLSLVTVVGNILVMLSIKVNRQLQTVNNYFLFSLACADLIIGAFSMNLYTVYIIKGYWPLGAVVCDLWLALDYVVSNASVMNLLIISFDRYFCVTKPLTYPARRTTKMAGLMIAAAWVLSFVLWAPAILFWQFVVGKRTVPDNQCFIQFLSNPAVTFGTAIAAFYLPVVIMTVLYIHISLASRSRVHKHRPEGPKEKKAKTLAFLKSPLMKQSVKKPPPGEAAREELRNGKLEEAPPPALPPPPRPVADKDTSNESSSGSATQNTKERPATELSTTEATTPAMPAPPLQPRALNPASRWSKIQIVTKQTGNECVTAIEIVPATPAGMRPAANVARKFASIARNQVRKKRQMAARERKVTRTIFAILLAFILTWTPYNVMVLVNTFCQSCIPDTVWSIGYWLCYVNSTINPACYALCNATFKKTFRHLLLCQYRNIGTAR
Assay: mAChR M4 cell-based functional assay (calcium flux, antagonism of EC80 acetylcholine response, M4/Gqi5/CHO-K1 cells)
Details: for IC50: decrease of the response elicited by an EC80 concentration of acetylcholine, CHO-K1 cells, Gqi5
Summary of the method: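 CHO-K1 cells stably expressing human M4 with chimeric Gqi5, loaded with Fluo-4 AM; calcium flux read on FDSS. Compounds (10-point, 1:3 curves) added first, then EC20 acetylcholine at 143 s and EC80 at 268 s. IC50 from decrease of EC80 acetylcholine response, four-parameter logistic fit.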

IC50 | remaining activity at 30 µM (CHO-K1, % ACh maximum at 30 μM, read-out: Human M4 Emin) | Compound
3.1 nM | – | [2H]C([2H])([C@H]1CCOC(C)(C)C1)N1C[C@H]2C[C@H](Nc3ccc(-c4cccnc4C(F)(F)F)nn3)C[C@H]2C1 (single isomer, unassigned) [Compound 61]
1.1 nM | 4% | [2H]C([2H])([C@@H]1CCOC(C)(C)C1)N1C[C@H]2C[C@H](Nc3ccc(-c4cccnc4C(F)(F)F)nn3)C[C@H]2C1 [Compound 62, (3aR,5s,6aS)-2-(((R)-2,2-dimethyltetrahydro-2H-pyran-4-yl)methyl-d2)-N-(6-(2-(trifluoromethyl)pyridin-3-yl)pyridazin-3-yl)octahydrocyclopenta[c]pyrrol-5-amine]
